What all share (assay type): physicochemical
Data set [1] can be described thus: Exudation (45° C. for 2 hours, then 25° C. for 3 hours, visual). On the set-up: key: A: When the amount of exudation was small and there were no oil droplets; B: when a slight degree of exudation was observed but the exudation went back in the temperature-controlled room at 25° C.; when the amount of exudation was large and the exudation did not go back even in the temperature-controlled room at 25° C. On the procedure: After the sample stored in the 50 mL glass container as described in the above-mentioned sample preparation method was stored in a temperature-controlled room at 45° C. for 2 hours, the amount of exudation on the surface of the sample was visually evaluated. The extent to which the exudation went back when the sample was returned to the temperature-controlled room at 25° C. and stored for 3 hours was also evaluated.

The nature of data set [2]: Evaluation of hardness (EZ-Test-20N hardness meter, needle penetration). Conditions: 25° C. On the procedure:
A sample such as a solid or an oil-based cosmetic was stored in a temperature-controlled room at 25° C. for at least 1 day, and measurement was carried out using an EZ-Test-20N hardness meter (manufactured by Shimadzu Corporation). The needle diameter was 1.0 mmφ, and the maximum value measured for the stress (N) at a needle penetration depth of 10 mm with a test speed of 10 mm/min was defined as the hardness.
Measurement was carried out using an EZ-Test-20N hardness meter (manufactured by Shimadzu Corporation). The needle diameter was 1.0 mmφ, and the maximum value measured for the stress (N) at a needle penetration depth of 10 mm with a test speed of 10 mm/min was defined as the hardness.

Data set [3] is described as follows: Miscibility evaluation (visual, 100° C. to 110° C.). The note with it: result in words. Here is the method: Sample preparation method: Predetermined amounts (mass %) of all components were weighed, dissolved at a temperature of 100° C. to 110° C. as appropriate, stirred until uniform, then cooled to 80° C. to 90° C. while stirring, poured into a preheated 50 mL glass container, transferred to a temperature-controlled room at 45° C., stored for 1 hour while gradually cooling, further transferred to a temperature-controlled room at 25° C., and stored for at least 1 day, thus giving a sample. Evaluation Methods for Various Characteristics (1) Miscibility Evaluation Method
The miscibility at a temperature of 100° C. to 110° C. when preparing the sample was evaluated visually as a degree of difficulty. One that was easily miscible was evaluated as ‘A’, one that was slightly difficulty miscible was evaluated as ‘B’, and one that was difficulty miscible was evaluated as ‘C’.

Setting [4] is: UNICLEAR 100VG: 30% with 70% of the listed component.
Where [5] appears, read: Versamid 930: 30% with 70% of the listed component.
The mark [6] stands for this setting: […] A200V: 30% with 70% of the listed component.

In the case of `CCCCCCCCCCCCCCCCOC(=O)C(CC)CCCC` (stereo not shown) [CEH, Cetyl ethylhexanoate], the Exudation properties result in data set [1] (setting [4]) is on record as “A”. The Hardness in data set [2] (setting [4]) is given as 0.70 N.
For the molecule `CC(C)CCCCCCCCCCCCCCCOC(=O)CC(O)C(=O)OCCCCCCCCCCCCCCCC(C)C` (stereo not shown) [DIS, Diisostearyl malate], the Exudation properties result in data set [1] (setting [4]) and in data set [1] (setting [5]) was “A” each time. Besides, the Hardness in data set [2] (setting [4]) came out at 0.80 N; in data set [2] (setting [5]), 0.12 N.
Turning to `CCCCCCCCCCCCC(CO)CCCCCCCCCC` (stereo not shown) [Example 24SP, Decyltetradecanol], the Exudation properties entry in data set [1] (setting [6]) was “C”. This molecule also displayed a Hardness in data set [2] (setting [6]) of 0.05 N.
The matching figures for `CCCCCCCCCCCCCCC(CO)CCCCCCCCCCCC` (stereo not shown) [Example 28SP, Dodecylhexadecanol]: “C” and 0.09 N.
Take `CC(C)CCCCCCCCCCCCCCC(=O)OC(C)C` [IPIS, Isopropyl isostearate]: in data set [1] (setting [4]), the Exudation properties entry is on record as “A”. In addition, the Hardness in data set [2] (setting [4]) came to 0.60 N.
For `CC(C)CCCCCCCCCCCCCCCOC(=O)CCCCCCCCCCCCCCC(C)C` [ISIS, Isostearyl isostearate], in that order: “B” and 0.05 N.
On to `CC(C)CCCCCCCCCCOC(=O)CCCCCC(C)C` [KAK139, Isotridecyl isononanoate], for which, in data set [1] (setting [4]), the Exudation properties entry is recorded as “A”. In addition, the Hardness in data set [2] (setting [4]) came out at 0.50 N.
As for `CCCCC(CC)C(=O)OCC(C)(C)COC(=O)C(CC)CCCC` (stereo not shown) [NDO, Neopentylglycol diethylhexanoate], the Exudation properties result in data set [1] (setting [4]) is listed as “A”. For the same molecule, the Hardness in data set [2] (setting [4]) is given as 0.90 N.
Turning to `CC(C)CCCCCCCCCCCCCCC(=O)OCC(COC(=O)CCCCCCCCCCCCCCC(C)C)(COC(=O)CCCCCCCCCCCCCCC(C)C)COC(=O)CCCCCCCCCCCCCCC(C)C` [PTI, Pentaerythrityl tetraisostearate], the Exudation properties entry in data set [1] (setting [4]) was “B”. The Hardness in data set [2] (setting [4]) worked out at 0.01 N.
Regarding `CCCCC(CC)C(=O)OCC(COC(=O)C(CC)CCCC)(COC(=O)C(CC)CCCC)COC(=O)C(CC)CCCC` (stereo not shown) [PTO, Pentaerythrityl tetraethylhexanoate], the Exudation properties result in data set [1] (setting [4]) was “B”. In data set [2] (setting [4]), the Hardness stood at 0.04 N.
For the molecule `Nc1cc(S(=O)(=O)[O-])cc2cc(S(=O)(=O)[O-])c(N=Nc3ccccc3)c(O)c12.[Na+].[Na+]` [Red. No. 227], the “miscibility with the base” value in data set [3] is “particularly excellent”.
As to `CC(C)CCCC(C)CCCC(C)CCCCC(C)CCCC(C)CCCC(C)C` (stereo not shown) [SQ, Squalane], the Exudation properties entry in data set [1] (setting [4]) is reported as “A”. In data set [2] (setting [4]), this molecule registered a Hardness of 0.02 N.
Regarding `CC(C)CCCCCCCCCCCCCCC(=O)OCC(COC(=O)CCCCCCCCCCCCCCC(C)C)OC(=O)CCCCCCCCCCCCCCC(C)C` [TISG, Triisostearin], the Exudation properties entry in data set [1] (setting [4]) is given as “B”. The Hardness in data set [2] (setting [4]) is given as 0.03 N.
The matching figures for `CCCCC(CC)C(=O)OCC(COC(=O)C(CC)CCCC)OC(=O)C(CC)CCCC` (stereo not shown) [TOG, Triethylhexanoin]: “B” and 0.06 N.
As to `CCC(COC(=O)CCCCCCCCCCCCCCC(C)C)(COC(=O)CCCCCCCCCCCCCCC(C)C)COC(=O)CCCCCCCCCCCCCCC(C)C` [TTI, Trimethylolpropane triisostearate], the Exudation properties result in data set [1] (setting [4]) and in data set [1] (setting [6]) was “B” each time. The Hardness in data set [2] (setting [4]) is 0.01 N; in data set [2] (setting [6]), 0.02 N.
With Polyglyceryl-2 diisostearate [PGIS22], the Exudation properties result in data set [1] (setting [4]) and in data set [1] (setting [5]) was “A” each time. Moreover, the Hardness in data set [2] (setting [4]) is listed as 0.33 N; in data set [2] (setting [5]), 3.00 N.
Regarding Polyglyceryl-2 isostearate [PGIS21], in data set [1] (setting [4]), the Exudation properties entry was “A”. The molecule also showed a Hardness in data set [2] (setting [4]) of 0.35 N.
For Polyglyceryl-2 triisostearate [PGIS23], in that order: “A” and 0.50 N.
On to “Trimethylolpropane triethylhexanoate [TTO]”, for which, in data set [1] (setting [6]), the Exudation properties result is listed as “B”. The same molecule showed a Hardness in data set [2] (setting [6]) of 0.03 N.

Values taken from patent US7993662B2, “Transparent solid oil cosmetics” (Kokyu Alcohol Kogyo Co., Ltd., priority 2005, dated 2011).
